# Measurements as given in patent publication US20190167694A1, “NEW THERAPEUTICS USES” (NOVARTIS AG, priority 2016, published 2019).
# Assays:
# [1] = test system: TEC-family kinases (ITK, TEC, and TXK); test: Cellular IL-2 production assay in Jurkat cells (CD3/CD28 stimulation, ELISA); type: cell-based; conditions: Homo sapiens, read-out: IC50, IL2-Production
# Description: The cellular IL-2 Production assay was carried out using Jurkat cells.
# [2] = target: T1, TXK (Homo sapiens, UniProt P42681); test: Biochemical TXK assay (Caliper LabChip)
# T1 sequence (P42681 1-527): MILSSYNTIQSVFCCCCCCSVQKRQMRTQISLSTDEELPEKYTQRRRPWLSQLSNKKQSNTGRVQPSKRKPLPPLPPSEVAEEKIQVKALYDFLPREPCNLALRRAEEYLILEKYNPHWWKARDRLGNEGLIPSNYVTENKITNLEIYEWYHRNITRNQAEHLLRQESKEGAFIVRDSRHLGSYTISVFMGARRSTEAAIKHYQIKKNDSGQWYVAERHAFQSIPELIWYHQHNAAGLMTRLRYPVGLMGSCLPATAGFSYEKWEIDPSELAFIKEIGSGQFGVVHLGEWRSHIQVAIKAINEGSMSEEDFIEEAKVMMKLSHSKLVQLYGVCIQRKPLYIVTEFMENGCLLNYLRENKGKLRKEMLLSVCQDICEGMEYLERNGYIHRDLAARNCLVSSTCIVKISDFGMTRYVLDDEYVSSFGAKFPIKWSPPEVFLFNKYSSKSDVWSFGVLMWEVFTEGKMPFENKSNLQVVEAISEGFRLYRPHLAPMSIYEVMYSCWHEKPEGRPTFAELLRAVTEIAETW
# Description: The biochemical assays for ITK, TEC and TXK were carried out using Caliper Life Sciences' proprietary LabChip™ technology. This technology uses a microfluidic chip to measure the conversion of a fluorescent peptide substrate to a phosphorylated product. The product conversions were determined in the presence of various compound concentrations and IC50 values were calculated.
# [3] = target: T2, TEC (Homo sapiens, UniProt P42680); test: Biochemical TEC assay (Caliper LabChip)
# T2 sequence (P42680 1-631): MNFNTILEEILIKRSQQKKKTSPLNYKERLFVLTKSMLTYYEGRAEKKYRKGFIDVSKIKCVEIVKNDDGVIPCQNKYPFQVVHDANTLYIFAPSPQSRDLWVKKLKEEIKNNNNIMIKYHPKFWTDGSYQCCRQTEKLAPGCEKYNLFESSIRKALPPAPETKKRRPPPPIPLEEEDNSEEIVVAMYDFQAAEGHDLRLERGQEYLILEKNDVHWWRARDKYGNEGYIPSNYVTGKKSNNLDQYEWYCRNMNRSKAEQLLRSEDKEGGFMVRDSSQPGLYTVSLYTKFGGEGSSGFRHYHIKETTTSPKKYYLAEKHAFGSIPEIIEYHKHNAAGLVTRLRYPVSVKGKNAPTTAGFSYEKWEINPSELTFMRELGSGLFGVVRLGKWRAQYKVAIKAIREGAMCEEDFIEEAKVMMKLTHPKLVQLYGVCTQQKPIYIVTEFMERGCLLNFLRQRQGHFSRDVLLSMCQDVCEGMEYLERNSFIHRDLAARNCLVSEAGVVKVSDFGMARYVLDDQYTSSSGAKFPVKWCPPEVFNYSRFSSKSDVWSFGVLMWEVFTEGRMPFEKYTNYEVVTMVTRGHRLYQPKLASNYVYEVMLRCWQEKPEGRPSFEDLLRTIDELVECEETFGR
# [4] = test system: anti-KLH IgM and anti-KLH IgG antibodies; test: T-cell dependent antibody response (TDAR) assay in rats, KLH immunization; type: in vivo, rat; conditions: for anti-KLH IgG, mean percent difference compared to vehicle controls / anti-KLH IgM, mean percent difference compared to vehicle controls: 30 mg/kg/day oral
# Description: T-cells play critical roles in immune regulation. T-cell Tec family kinases are important players in T-cell function, which in turn can modulate immune function. COMPOUND A was tested in a T-cell dependent antibody response (TDAR) assay, a frequently used functional assessment of the immune system. […] On study days 11 and 25 for the main study animals and days 28 and 42 for the recovery group, animals received 300 μg of KLH (Keyhole Limpet Hemocyanin) antigen. Samples for serology assessment of anti-KLH IgM and anti-KLH IgG antibodies (study days 19, 21, 23, 25 and 36 prior to dosing from the main study animals; recovery days 42 and 53 prior to KLH injection from the recovery animals) were collected. Immunomodulatory responses in COMPOUND A-treated animals following KLH immunization were noted when values were compared to concurrent vehicle controls. […] The decreases were also observed in mean anti-KLH IgM values on study days 21, 23, 25 (primary response, time course) and day 36 (post boosting) for female rats. For anti-KLH IgG antibodies, decreases in mean concentration were apparent on study days 19, 21, 23 and 25 for both male and female rats. On study day 36, decreases in mean concentration were detected in female rats. Recovery following withdrawal of COMPOUND A treatment was noted. The COMPOUND A-related decrease of anti-KLH antibody production in both male and female rats was reversible. This included both primary response-anti-KLH IgM, and isotype switch measured by secondary anti-KLH IgG production as indicated by values that were similar to concurrent controls at the recovery sampling time points (recovery day 42 and 53).
# [5] = test system: Mouse B cell; test: cells; conditions: 72 h, read-out: IC50, Mouse B cell proliferation
# Description: Cells were incubated at 37° C. in the presence of various concentrations of compound. After 3 days, cell viability was measured using Cell Titer Glo.
# [6] = test system: BTK (TMD-8); test: cells; conditions: Homo sapiens, TMD8, 72 h, read-out: IC50, BTK (TMD-8) proliferation
# Description: After 3 days, cell viability was measured using Cell Titer Glo.
# [7] = test system: Human CD4 T cell; test: Human CD4 T cell proliferation assay (Cell Titer Glo); type: cell-based; conditions: 96 h, anti-CD3/anti-CD28 beads, 4 days
# Description: In the Human CD4 T cell assay, primary human CD4+ T cells isolated from a leukopak were cultured in the presence of anti-CD^3/anti-CD28 beads to stimulate T cell proliferation.
# [8] = female rats, study day 36 (post boosting)
structure (smiles),measurement,setting,value
"Cc1cc(C(=O)Nc2nc3cccc(Cl)c3n2[C@@H]2CCCCN(C(=O)/C=C/CN(C)C)C2)ccn1 [COMPOUND A, (R,E)-N-(7-chloro-1-(1-(4-(dimethylamino)but-2-enoyl)azepan-3-yl)-1H-benzo[d]imidazol-2-yl)-2-methylisonicotinamide]",IC50,[1],21 nM
same,"IC50, TXK biochemical",[2],single digit nM potency
same,"IC50, TEC biochemical",[3],single digit nM potency
same,"anti-KLH IgG, mean percent difference compared to vehicle controls","[4]; female rats, study day 19",−96%
same,"anti-KLH IgM, mean percent difference compared to vehicle controls","[4]; female rats, study day 19",−88%
same,"anti-KLH IgG, mean percent difference compared to vehicle controls","[4]; female rats, study day 21",−98%
same,"anti-KLH IgM, mean percent difference compared to vehicle controls","[4]; female rats, study day 21",−75%
same,"anti-KLH IgG, mean percent difference compared to vehicle controls","[4]; female rats, study day 23",−97%
same,"anti-KLH IgM, mean percent difference compared to vehicle controls","[4]; female rats, study day 23",−71%
same,"anti-KLH IgG, mean percent difference compared to vehicle controls","[4]; female rats, study day 25",−96%
same,"anti-KLH IgM, mean percent difference compared to vehicle controls","[4]; female rats, study day 25",−63%
same,"anti-KLH IgG, mean percent difference compared to vehicle controls",[4]; [8],−69%
same,"anti-KLH IgM, mean percent difference compared to vehicle controls",[4]; [8],−67%
same,reversibility of decrease of anti-KLH antibody production after withdrawal of treatment,"[4]; male and female rats, 30 mg/kg/day, recovery days 42 and 53",reversible
same,"anti-KLH IgG, mean percent difference compared to vehicle controls","[4]; male rats, study day 19",−78%
same,"anti-KLH IgM, mean percent difference compared to vehicle controls","[4]; male rats, study day 19",−67%
same,"anti-KLH IgG, mean percent difference compared to vehicle controls","[4]; male rats, study day 21",−84%
same,"anti-KLH IgG, mean percent difference compared to vehicle controls","[4]; male rats, study day 23",−80%
same,"anti-KLH IgG, mean percent difference compared to vehicle controls","[4]; male rats, study day 25",−83%
same,IC50,[5],295 nM
same,IC50,[6],224 nM
same,IC50,[7],140 nM
"C=CC(=O)N1CCC[C@@H](n2nc(-c3ccc(Oc4ccccc4)cc3)c3c(N)ncnc32)C1 [Ibrutinib, ibrutinib, reference compound]",IC50,[1],284 nM
